# How the values were obtained:
# [1] = system: Glomerella lagenarium (Colletotrichum lagenarium); experiment: Fungicidal activity against Glomerella lagenarium (Colletotrichum lagenarium) liquid culture / cucumber / preventative (anthracnose); format: cell-based; settings: Colletotrichum orbiculare, 72 h; 20 ppm in the applied formulation; liquid culture (PDB), growth inhibition measured photometrically 3 to 4 days after application; vs untreated control; read-out: disease control
# Outline: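 Cryostored conidia mixed into potato dextrose broth and added to DMSO compound solution in microtiter plates. Incubated at 24 °C. Growth inhibition read photometrically 3–4 days after application as percent activity versus untreated check.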
# [2] = system: Puccinia recondita f. sp. Tritici; experiment: Fungicidal activity against Puccinia recondita f. sp. Tritici / wheat / leaf disc curative (brown rust); format: in vivo; settings: foliar, 24 h, 200 ppm in the applied formulation, wheat leaf segments cv. Kanzler, applied 1 day after inoculation, vs untreated control, read-out: disease control
# Outline: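 Curative test: wheat leaf segments cv. Kanzler on agar inoculated with spore suspension, kept dark at 19 °C/75% RH, then sprayed 1 day post-inoculation with compound diluted in water. Incubated at 19 °C, 75% RH, 12 h light/dark; percent disease control versus untreated scored 6–8 days after application.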
# Phakopsora pachyrhizi = experiment: Fungicidal activity against Phakopsora pachyrhizi / soybean / leaf disc preventative (Asian soybean rust); format: in vivo; settings: foliar, 200 ppm in the applied formulation, soybean leaf disks, vs untreated control, read-out: disease control
# Outline: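 Soybean leaf discs on water agar sprayed with compound diluted in water, then inoculated with spores on the lower surface one day later. Kept 24-36 h dark, 20 °C, 75% rh, then 12 h light/12 h dark. Percent disease control versus untreated scored 12-14 days after application.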
# [3] = system: Puccinia recondita f. sp. Tritici; experiment: Fungicidal activity against Puccinia recondita f. sp. Tritici / wheat / leaf disc preventative (brown rust); format: in vivo; settings: foliar, 200 ppm in the applied formulation, wheat leaf segments cv. Kanzler, inoculated 1 day after application, vs untreated control, read-out: disease control
# Outline: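 Compound, diluted from DMSO solution into aqueous 0.025% Tween20, is sprayed at 200 ppm onto cut wheat segments (cv. Kanzler) placed on water agar. One day on, segments receive a fungal spore suspension and are incubated at 19° C., 75% rh, 12 h photoperiod, with % control vs untreated scored at 7–9 days.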
melting point,SMILES,inhibition of growth at 20 ppm [1],pest or weed control at 200 ppm [2],pest or weed control at 200 ppm (Phakopsora pachyrhizi),pest or weed control at 200 ppm [3]
114 to 119 °C,"C#CCO/N=C\NC(=O)c1ccc(-c2noc(C(F)(F)F)n2)cc1 [Compound 1.6, N-[(Z)-prop-2-ynoxyimino-methyl]-4-[5-(trifluoromethyl)-1,2,4-oxadiazol-3-yl]benzamide]",≥ 80%,≥ 80%,≥ 80%,≥ 80%
100.7 to 106.9 °C,"CO/N=C(\C)C(NC(=O)c1ccc(-c2noc(C(F)(F)F)n2)cc1)OC (stereo not drawn) [Compound 1.7, N-[(2E)-1-methoxy-2-methoxyimino-propyl]-4-[5-(trifluoromethyl)-1,2,4-oxadiazol-3-yl]benzamide]",≥ 80%,≥ 80%,≥ 80%,≥ 80%
142 to 143 °C,"CCO/N=C/C(C)NC(=O)c1ccc(-c2noc(C(F)(F)F)n2)cc1 (stereo not drawn) [Compound 1.8, N-[(2E)-2-ethoxyimino-1-methyl-ethyl]-4-[5-(trifluoromethyl)-1,2,4-oxadiazol-3-yl]benzamide]",≥ 80%,≥ 80%,≥ 80%,≥ 80%
173 to 174 °C,"CCO/N=C\C(C)NC(=O)c1ccc(-c2noc(C(F)(F)F)n2)cc1 (stereo not drawn) [Compound 1.9, N-[(2Z)-2-ethoxyimino-1-methyl-ethyl]-4-[5-(trifluoromethyl)-1,2,4-oxadiazol-3-yl]benzamide]",≥ 80%,≥ 80%,≥ 80%,≥ 80%
155 to 157 °C,"CON=CCNC(=O)c1ccc(-c2noc(C(F)(F)F)n2)cc1 [Compound 1.10, N-(2-methoxyimino-ethyl)-4-[5-(trifluoromethyl)-1,2,4-oxadiazol-3-yl]benzamide]",≥ 80%,≥ 80%,≥ 80%,≥ 80%
156 to 158 °C,"CCON=CCNC(=O)c1ccc(-c2noc(C(F)(F)F)n2)cc1 [Compound 1.11, N-(2-ethoxyiminoethyl)-4-[5-(trifluoromethyl)-1,2,4-oxadiazol-3-yl]benzamide]",≥ 80%,≥ 80%,≥ 80%,≥ 80%
135 to 136 °C,"CCON=C(C)CNC(=O)c1ccc(-c2noc(C(F)(F)F)n2)cc1 [Compound 1.12, N-(2-ethoxyimino-propyl)-4-[5-(trifluoromethyl)-1,2,4-oxadiazol-3-yl]benzamide]",≥ 80%,≥ 80%,≥ 80%,≥ 80%
145 to 146 °C,"CO/N=C(\C)CNC(=O)c1ccc(-c2noc(C(F)(F)F)n2)cc1 [Compound 1.13, N-[(2E)-2-methoxyimino-propyl]-4-[5-(trifluoromethyl)-1,2,4-oxadiazol-3-yl]benzamide]",≥ 80%,≥ 80%,≥ 80%,≥ 80%
151 to 152 °C,"CO/N=C(/C)CNC(=O)c1ccc(-c2noc(C(F)(F)F)n2)cc1 [Compound 1.14, N-[(2Z)-2-methoxyimino-propyl]-4-[5-(trifluoromethyl)-1,2,4-oxadiazol-3-yl]benzamide]",≥ 80%,≥ 80%,≥ 80%,≥ 80%
145 to 146 °C,"O=C(NCC=NOCCF)c1ccc(-c2noc(C(F)(F)F)n2)cc1 [Compound 1.148, N-[2-(2-fluoroethoxyimino)ethyl]-4-[5-(trifluoromethyl)-1,2,4-oxadiazol-3-yl]benzamide]",≥ 80%,≥ 80%,≥ 80%,≥ 80%
138 to 139 °C,"CC(/C=N/OCCF)NC(=O)c1ccc(-c2noc(C(F)(F)F)n2)cc1 (stereo not drawn) [Compound 1.149, N-[(2E)-2-(2-fluoroethoxy-imino)-1-methyl-ethyl]-4-[5-(trifluoromethyl)-1,2,4-oxadiazol-3-yl]benzamide]",≥ 80%,≥ 80%,≥ 80%,≥ 80%
172 to 173 °C,"CC(/C=N\OCCF)NC(=O)c1ccc(-c2noc(C(F)(F)F)n2)cc1 (stereo not drawn) [Compound 1.150, N-[(2Z)-2-(2-fluoroethoxyimino)-1-methyl-ethyl]-4-[5-(trifluoromethyl)-1,2,4-oxadiazol-3-yl]benzamide]",≥ 80%,≥ 80%,≥ 80%,≥ 80%
133 to 134 °C,"CC(CNC(=O)c1ccc(-c2noc(C(F)(F)F)n2)cc1)=NOCCF [Compound 1.151, N-[2-(2-fluoroethoxyimino)propyl]-4-[5-(trifluoromethyl)-1,2,4-oxadiazol-3-yl]benzamide]",≥ 80%,≥ 80%,≥ 80%,≥ 80%
136 to 140 °C,"CON=CCCNC(=O)c1ccc(-c2noc(C(F)(F)F)n2)cc1 [Compound 1.152, N-(3-methoxyimino-propyl)-4-[5-(trifluoromethyl)-1,2,4-oxadiazol-3-yl]benzamide]",≥ 80%,≥ 80%,≥ 80%,≥ 80%
132 to 136 °C,"CCON=CCCNC(=O)c1ccc(-c2noc(C(F)(F)F)n2)cc1 [Compound 1.153, N-(3-ethoxyiminopropyl)-4-[5-(trifluoromethyl)-1,2,4-oxadiazol-3-yl]benzamide]",≥ 80%,≥ 80%,≥ 80%,≥ 80%
180 to 183 °C,"O=C(NCCC=NO)c1ccc(-c2noc(C(F)(F)F)n2)cc1 [Compound 1.154, N-(3-hydroxyimino-propyl)-4-[5-(trifluoromethyl)-1,2,4-oxadiazol-3-yl]benzamide]",≥ 80%,≥ 80%,≥ 80%,≥ 80%
122 to 124 °C,"CON=C(C)CNC(=O)c1ccc(-c2noc(C(F)(F)F)n2)cc1F [Compound 1.157, 2-fluoro-N-(2-methoxyimino-propyl)-4-[5-(trifluoromethyl)-1,2,4-oxadiazol-3-yl]benzamide]",≥ 80%,≥ 80%,≥ 80%,≥ 80%
120 to 122 °C,"CCON=C(C)CNC(=O)c1ccc(-c2noc(C(F)(F)F)n2)cc1F [Compound 1.158, N-(2-ethoxyiminopropyl)-2-fluoro-4-[5-(trifluoromethyl)-1,2,4-oxadiazol-3-yl]benzamide]",≥ 80%,≥ 80%,≥ 80%,≥ 80%

# — patent US11192867B2, “Microbiocidal oxadiazole derivatives” (SYNGENTA PARTICIPATIONS AG, priority 2016, dated 2021)
